Data on four compounds can be found in patent US9302993B2, “8-hydroxy quinoline derivatives” (PRANA BIOTECHNOLOGY LIMITED, priority 2002, dated 2016).

For data set [1], the target named is T1, hydrogen peroxide generation by Aβ in the presence of copper (Homo sapiens, UniProt P05067).
T1 construct: The reaction solutions contained Aβ 1-42 at concentrations in the range of 50 nM to 1 μM
Description: Fluorometric H2O2 assay (Assay 1). The data set is classed as biochemical. As to conditions: Aβ 1-42 with Cu-Gly, DCF/HRP, 37 C 60 min; several values in one cell = repeat determinations; read-out: Peroxide IC50. A digest of the protocol:
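Aβ1-42 (50 nM–1 μM) with Cu-glycine (2 Cu-Gly : 1 Aβ) and a reductant (dopamine 5 μM or ascorbic acid) was incubated 60 min at 37 °C in PBS pH 7.4 with test compound. H2O2 was detected with 100 μM deacetylated DCF and 0.1 μM HRP by fluorescence against H2O2 standards.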

Data set [2] is described as follows: Blood brain barrier penetration, brain perfusion (Assay 14). The data set is classed as in vivo. Particulars: rat brain perfusion, 50 μM, 1.5 minutes.
Description: Assay 14. Blood Brain Barrier Penetration
A trace amount of ^14C-sucrose was added to each stock infusion solution (approx 0.01 μCi/mL) to act as Blood-Brain Barrier (BBB)-impermeable marker in order to assess the integrity of the BBB during each perfusion and to estimate the volume of the residual vascular space (RVS) in samples of brain tissue (ie: the volume of fluid remaining inside the lumen of blood vessels at the end of each perfusion).
The right common carotid artery was surgically exposed and cannulated for perfusion of the cerebral circulation. The right external carotid artery (which supplies tissues outside the skull) was then ligated distal to its bifurcation from the right common carotid artery so that all of the infusion solution would pass into the brain via the remaining right internal carotid artery. The heart was then exposed and transected immediately prior to the commencement of the infusion. […] The infusion cannula initially contained a 0.5 mL pre-wash of heparinised PBS (10 IU/ml) that acts to flush blood vessels and to prevent blood from clotting and blocking small vessels.
After 1.5 minutes, the infusion pump automatically stopped, the cannula was withdrawn from the carotid artery and a sample of the infusion solution (1-1.5 mL) was then collected from the tip of the infusion cannula. The brain was then dissected free and divided into 3 parts; the right hemisphere together with the right midbrain, the left hemisphere together with the left midbrain and the hindbrain (cerebellum, pons and brainstem). Only the right part of the brain was used for subsequent measurements because perfusion via the right internal carotid artery preferentially supplies the right hemisphere and right midbrain (the left hemisphere and hindbrain receive a variable collateral perfusion). The brain tissue samples from each animal were frozen at −30° C., homogenized and weighed aliquots analysed by LC-MS to give total brain concentration. The analysis was carried out using the Micromass Triple Quad instrument. The mobile phase consisted of an acetonitrile/water gradient (containing 0.05% Formic acid) and the column was a Phenomenex Luna CN.
Small aliquots from each brain tissue sample and the corresponding infusion solution were analysed by liquid scintillation counting to determine the level of ^14C-sucrose. The residual vascular space (RVS) in each brain tissue sample was calculated by dividing the measured concentration of sucrose in brain tissue (dpm/mg) by its concentration in the corresponding infusion solution (dpm/μL). This is the volume of fluid that remains inside blood vessels at the end of each perfusion. […]
A total of 5-6 brain perfusion experiments were performed for each of the test compounds and mean brain uptake ratios were calculated.
Data set [3] is described as follows: Turbidimetric solubility measurements (Assay 13). Particulars: kinetic from dmso stock, 1% DMSO, nephelometry. The class given is physicochemical. Here is the method: Turbidimetric Solubility Measurements
The solubility estimate was measured at both pH 2.0 and pH 6.5. This is within the pH range that can be anticipated along the proximal gastrointestinal tract in humans.
The compounds were dissolved in DMSO to appropriate concentrations and then spiked into either 0.01M HCl (approx. pH=2.0) or pH 6.5 isotonic phosphate buffer, the final DMSO concentration being 1%. Samples were then analysed via Nephelometry to determine a solubility range. [as per D. Bevan and R. S. Lloyd, Anal. Chem. 2000, 72, 1781-1787].

Data set [4] is described as follows: E Log D, chromatographic method (Assay 13). The class given is physicochemical. As to conditions: SUPELCOSIL LC-ABZ column with octanol saturated mobile phase, pH 7.4; read-out: E Log D7.4. Here is the method:
Effective Log D values were measured using a chromatographic method employing a SUPELCOSIL LC-ABZ column using an octanol saturated mobile phase at pH 7.4.

Data set [5] is described as follows: Pharmacokinetic profile, IV and oral (Assay 16). The class given is in vivo. As to conditions: rat; for BA (%): oral, calculated using the truncated AUC; for clearance: read-out: Cltotal (mL/min/Kg), total plasma clearance. Here is the method: Assay 16. Pharmacokinetic Profile
• Intravenous infusion of PBT-1033; 2 mg/Kg (1 mL of a 0.5 mg/mL solution in 7.5% DMSO with 0.1 m Captisol in Citrate Buffer adjusted to pH 3.0) was administered over 5 minutes to 2 rats and arterial blood was sampled up to 24 hours. • Oral administration of PBT-1033; 30 mg/Kg (as a suspension in CMC-SSV*) via administered via oral gavage to 2 rats and arterial blood was sampled up to 26 hours. * Standard Suspending Vehicle—0.5% w/v Na-Carboxymethyl Cellulose (CMC), 5% v/v benzyl alcohol, 4% v/v Tween 80 in 0.9% NaCl. • Plasma concentrations of PBT-1033 were determined by LCMS (LOQ 3.7 nM). For rat 020710-D, an overlapping peak was present for PBT-1033.
[formula] [formula] [formula] Calculations: • CLtotal=total plasma clearance after IV administration • Vdβ=volume of distribution during the elimination phase after IV administration • BA=oral bioavailability • AUCIV=area under the plasma concentration versus time profile from time zero to infinity after IV administration • AUCoral=area under the plasma concentration versus time profile from time zero to infinity after oral administration • β=terminal elimination rate constant after IV administration • The results are shown in FIG. 4(a). (b) PBT-1038 • Intravenous infusion of PBT-1038; (0.5 mg/Kg in 7.5% DMSO in Citrate Buffer pH 3.0) was administered over 5 minutes to 2 rats and arterial blood was sampled up to 24 hours. • Oral administration of PBT-1038; (30 mg/Kg as a 0.05% CMC suspension) via administered via oral gavage to 2 rats and arterial blood was sampled up to 24 hours. • Plasma concentrations of PBT-1038 were determined by MS (LOQ 3 nM)
(c) PBT-1050 • Intravenous infusion of PBT-1050; (2 mg/Kg in 7.5% DMSO in Citrate Buffer pH 3.0) was administered over 5 minutes to 2 rats and arterial blood was sampled up to 24 hours. • Oral administration of PBT-1050; (30 mg/Kg as a 0.05% CMC suspension) was administered via oral gavage to 2 rats and arterial blood was sampled up to 24 hours. • Plasma concentrations of PBT-1050 were determined by MS (LOQ 3 nM)
(d) PBT-1051 • Intravenous infusion of PBT-1051; 2 mg/Kg (1 mL of a 0.6 mg/mL solution in 7.5% DMSO in Citrate Buffer pH 3.0) was administered over 5 minutes to 2 rats and arterial blood was sampled up to 24 hours. • Oral administration of PBT-1051; 30 mg/Kg (as a suspension in CMC-SSV*) was administered via oral gavage to 2 rats and arterial blood was sampled up to 24 hours. * Standard Suspending Vehicle—0.5% w/v Na-Carboxymethyl Cellulose (CMC), 5% v/v benzyl alcohol, 4% v/v Tween 80 in 0.9% NaCl. • Plasma concentrations of PBT-1051 were determined by LCMS (LOQ 3.7 nM)

Data set [6] is described as follows: Toxicity at 30 mg/kg (In vivo Efficacy and Safety Profile).
Setting [7] is: aqueous buffer, pH 6.5 isotonic phosphate buffer, read-out: Solubility pH 6.5.
[8] abbreviates: simulated gastric fluid, 0.01M HCl (approx. pH 2.0), read-out: Solubility (μg/mL) 0.01M HCl.
The mark [9] stands for this setting: PO 30 mg/Kg, individual rats, listed as PBT 1050, 30 mg/kg.
[10] abbreviates: plasma, po, 30 mg/kg, PO 30 mg/Kg, Mean ± SD.
[11] abbreviates: plasma, po, 30 mg/kg, PO 30 mg/Kg, Mean ± SD, read-out: Tmax (converted).
Setting [12] is: IV, individual rats, listed as PBT 1051, hydrochloride.
[13] abbreviates: PO 30 mg/Kg, individual rats, listed as PBT 1051, hydrochloride, 30 mg/kg.
The mark [14] stands for this setting: plasma, po, 30 mg/kg, PO 30 mg/Kg, individual rats.
The mark [15] stands for this setting: plasma, po, 30 mg/kg, PO 30 mg/Kg, individual rats, read-out: Tmax (converted).
Where [16] appears, read: IV, individual rats, listed as PBT 1033, hydrochloride.
Where [17] appears, read: PO 30 mg/Kg, individual rats, listed as PBT 1033, hydrochloride, 30 mg/kg.

Values after ≈ are worked out from the molar mass of the structure shown. Values joined by “and” are separate entries in the source; they are usually repeats but may differ in a detail not shown here. Equal values may be shown once. Read-outs that look alike come from different tables or passages of the source. Some results are limits rather than exact numbers.

T1 sequence (P05067 672-713 limits assumed): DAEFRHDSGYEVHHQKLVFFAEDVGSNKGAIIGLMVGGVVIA

What is called IC50 is the midpoint of a concentration-inhibition curve. A word on the Cmax: it is the highest concentration seen after dosing. By Tmax is commonly meant the time at which the peak concentration occurs. `Cn1cnc(CCNC(=O)c2ccc3c(Cl)cc(Cl)c(O)c3n2)c1` [compound 1050, 5,7-dichloro-8-hydroxyquinoline-2-carboxylic acid [2-(1-methyl-1H-imidazol-4-yl)-ethyl]-amide]: in data set [1], the IC50 turned out to be 280 nM. For the same compound, in data set [2], the “Uptake Ratio” value is more than 50%. Besides, the solubility is 12.5 to 25 µg/mL (≈ 34.2 to 68.5 µM) in data set [3] (setting [7]) and 25 to 50 µg/mL (≈ 68.5 to 137 µM) in data set [3] (setting [8]). Moreover, the chromatographic logD in data set [4] was determined as 2.98. Moreover, the Cmax in data set [5] (IV, individual rats, listed as PBT 1050) is 33.9 µM and 16.9 µM; in data set [5] (setting [9]), 61 µM and 7.03 µM; in data set [5] (plasma, iv, 2 mg/kg, Mean ± SD) it was 25.4 ± 12.1 µM; in data set [5] (setting [10]), 34 ± 38.2 µM. Moreover, the time to peak (Tmax) in data set [5] (setting [9]) was 45 min and 120 min; in data set [5] (setting [11]), 82.5 min.
A word on the half-life: it is the time in which the quantity being followed falls by half. Low values mean rapid decline, high ones slow decline. On to `CCNCc1ccc2c(Cl)cc(Cl)c(O)c2n1.Cl` [compound 1051, 5,7-dichloro-2-ethylaminomethyl-quinolin-8-ol hydrochloride], for which, in data set [2], the “Uptake Ratio” value was more than 50%. Moreover, the solubility in data set [3] (setting [7]) and in data set [3] (setting [8]) was less than 3.1 µg/mL each time. The chromatographic logD in data set [4] turned out to be 2.64. Moreover, the “VdB” value was 9.64 ± 0.77 L/kg in data set [5] (IV, Mean ± SD); 10.19 L/kg and 9.10 L/kg in data set [5] (setting [12]). Also, in data set [5] (setting [12]), the “Cltotal (mL/min/Kg), total plasma clearance” value came to 135.58 mL/min/kg. The peak concentration (Cmax) in data set [5] (setting [12]) is 3.03 µM; in data set [5] (setting [13]), 3.18 µM and 1.5 µM; in data set [5] (plasma, iv, Mean ± SD) it was 2.99 ± 0.05 µM; in data set [5] (plasma, iv, individual rats) it was 2.96 µM; in data set [5] (setting [10]) it was 2.34 ± 1.18 µM. For the same compound, the results for the “t1/2” value in data set [5] (setting [12]) and in data set [5] (setting [13]) were 46.52 min and 365.72 min, respectively. In addition, the time to peak (Tmax) in data set [5] (setting [13]) is 30 min; in data set [5] (setting [11]) it was 45 min; in data set [5] (setting [15]) it was 60 min. In addition, the “BA (%)” value in data set [5] (Mean ± SD) was 27.75 ± 14.43%; in data set [5] (individual rats, listed as PBT 1051, hydrochloride) it was 37.96% and 17.55%. Also, the clearance in data set [5] (plasma, iv, 2 mg/Kg, IV, Mean ± SD) is 144 ± 12.5 mL/min/kg; in data set [5] (plasma, iv, 2 mg/Kg, IV, individual rats), 153 mL/min/kg. For the same compound, the half-life in data set [5] (plasma, iv, 2 mg/Kg, Mean ± SD) is 46.3 ± 0.32 min; in data set [5] (plasma, iv, 2 mg/Kg, individual rats), 46.1 min; in data set [5] (setting [10]), 283 ± 117 min; in data set [5] (setting [14]), 200 min.
With `CN(C)Cc1ccc2c(Cl)cc(Cl)c(O)c2n1.Cl` [compound 1033, 5,7-Dichloro-2-dimethylaminomethyl-quinolin-8-ol hydrochloride], in data set [1], the IC50 is 380 nM. Moreover, the “Uptake Ratio” value in data set [2] is given as more than 50%. In addition, the solubility in data set [3] (setting [7]) is 3.1 to 6.2 µg/mL; in data set [3] (setting [8]), less than 3.1 µg/mL. Moreover, the chromatographic logD in data set [4] was 1.32. Also, the “VdB” value in data set [5] (IV, Mean ± SD) is 9.03 ± 3.07 L/kg; in data set [5] (setting [16]) it was 6.86 L/kg and 11.20 L/kg. Moreover, the “Cltotal (mL/min/Kg), total plasma clearance” value in data set [5] (setting [16]) is 145.69 mL/min/kg. Further, the peak concentration (Cmax) in data set [5] (setting [16]) was 0.7 µM and 2.48 µM; in data set [5] (setting [17]) it was 1.36 µM; in data set [5] (plasma, iv, 2 mg/kg, Mean ± SD), 1.59 ± 1.26 µM; in data set [5] (setting [10]) it was 1.69 ± 0.47 µM; in data set [5] (setting [14]) it was 2.02 µM. For the same compound, the “Tmax” value in data set [5] (setting [16]) was 20 min and 5 min; in data set [5] (setting [17]) it was 60 min; in data set [5] (plasma, iv, 2 mg/kg, IV, Mean ± SD, read-out: Tmax (converted)), 12.5 min; in data set [5] (setting [11]), 52.5 min; in data set [5] (setting [15]), 45 min. Further, the “t1/2” value in data set [5] (setting [16]) stood at 53.29 min. The “BA (%)” value was 25.25 ± 0.29% in data set [5] (Mean ± SD); 25.45% and 25.04% in data set [5] (individual rats, listed as PBT 1033, hydrochloride). Besides, the clearance was determined as 118 ± 38.7 mL/min/kg in data set [5] (plasma, iv, 2 mg/kg, IV, Mean ± SD) and 91 mL/min/kg in data set [5] (plasma, iv, 2 mg/kg, IV, individual rats). The half-life in data set [5] (plasma, iv, 2 mg/kg, Mean ± SD) was 52.8 ± 0.73 min; in data set [5] (plasma, iv, 2 mg/kg, individual rats) it was 52.2 min. Moreover, the “Toxicity at 30 mg/kg” value in data set [6] is given as “None”.
Regarding `O=C(NCCc1c[nH]cn1)c1ccc2c(Cl)cc(Cl)c(O)c2n1` [compound 1038, 5,7-Dichloro-8-hydroxyquinoline-2-carboxylic acid [2-(1H-imidazol-4-yl)-ethyl]-amide], the “Uptake Ratio” value in data set [2] is reported as more than 50%. In addition, the solubility in data set [3] (setting [7]) was 12.5 to 25 µg/mL (≈ 35.6 to 71.2 µM); in data set [3] (setting [8]), 3.1 to 6.2 µg/mL (≈ 8.83 to 17.7 µM). Also, in data set [4], the chromatographic logD was found to be 2.92. For the same compound, the highest concentration (Cmax) is 8.06 µM and 2.84 µM in data set [5] (IV, individual rats, listed as PBT 1038); 68.5 µM in data set [5] (PO 30 mg/Kg, individual rats, listed as PBT 1038, 30 mg/kg); 5.45 ± 3.7 µM in data set [5] (plasma, iv, Mean ± SD); 63.1 ± 7.57 µM in data set [5] (setting [10]); 57.8 µM in data set [5] (setting [14]). Besides, the “Tmax” value in data set [5] (PO 30 mg/Kg, individual rats) is 45 min; in data set [5] (setting [11]) it was 45 min; in data set [5] (setting [15]), 45 min.
